Source: US20220274961A1, “SUBSTITUTED FUSED BI- OR TRI- HETEROCYCLIC COMPOUNDS AS EHMT2 INHIBITORS” (priority 2016, published 2022)

Target: T1, EHMT2 (Homo sapiens, UniProt Q96KQ7)
T1 construct: endogenous in cells; host or cells: MDA-MB-231 (ATCC)
T1 sequence (Q96KQ7 1-1210): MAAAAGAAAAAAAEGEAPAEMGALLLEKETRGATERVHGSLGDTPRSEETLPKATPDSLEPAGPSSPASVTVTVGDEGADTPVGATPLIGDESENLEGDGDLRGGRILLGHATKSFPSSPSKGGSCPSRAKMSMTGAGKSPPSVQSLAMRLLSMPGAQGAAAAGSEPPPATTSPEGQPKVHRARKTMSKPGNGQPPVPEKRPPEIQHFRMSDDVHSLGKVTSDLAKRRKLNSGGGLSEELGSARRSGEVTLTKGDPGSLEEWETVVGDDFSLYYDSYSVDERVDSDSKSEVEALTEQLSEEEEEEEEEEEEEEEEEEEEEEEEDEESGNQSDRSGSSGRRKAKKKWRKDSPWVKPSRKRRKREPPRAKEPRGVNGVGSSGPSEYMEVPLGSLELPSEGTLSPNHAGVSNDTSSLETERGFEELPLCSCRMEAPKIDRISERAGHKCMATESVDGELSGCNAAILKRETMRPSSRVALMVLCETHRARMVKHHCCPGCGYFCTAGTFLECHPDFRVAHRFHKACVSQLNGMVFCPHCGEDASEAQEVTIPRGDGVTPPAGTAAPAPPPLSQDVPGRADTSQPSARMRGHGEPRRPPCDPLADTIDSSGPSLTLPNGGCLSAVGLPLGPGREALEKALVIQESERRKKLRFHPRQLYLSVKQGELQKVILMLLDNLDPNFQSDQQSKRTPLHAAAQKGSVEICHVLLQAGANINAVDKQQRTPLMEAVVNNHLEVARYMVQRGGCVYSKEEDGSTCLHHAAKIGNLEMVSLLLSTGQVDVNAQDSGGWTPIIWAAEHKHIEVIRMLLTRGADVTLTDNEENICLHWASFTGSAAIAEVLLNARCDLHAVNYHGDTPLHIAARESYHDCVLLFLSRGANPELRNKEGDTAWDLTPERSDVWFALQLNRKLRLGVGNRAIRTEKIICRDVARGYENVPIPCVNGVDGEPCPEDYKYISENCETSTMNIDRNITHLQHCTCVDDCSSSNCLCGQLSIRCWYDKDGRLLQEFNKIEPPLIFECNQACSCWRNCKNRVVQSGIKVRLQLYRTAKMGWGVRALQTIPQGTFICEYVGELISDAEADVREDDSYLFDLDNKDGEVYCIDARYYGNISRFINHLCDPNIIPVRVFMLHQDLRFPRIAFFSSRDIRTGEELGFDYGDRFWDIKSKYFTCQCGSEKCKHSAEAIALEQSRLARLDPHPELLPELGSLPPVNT
Test: MDA-MB-231 H3K9me2 in-cell Western assay (EHMT2 ICW)
Assay type: cell-based
Conditions: not given
Text: MDA-MB-231 cell line was purchased from ATCC (Manassas, Va., USA). RPMI/Glutamax medium, Penicillin-Streptomycin, Heat Inactivated Fetal Bovine Serum, and D-PBS were purchased from Life Technologies (Grand Island, N.Y., USA). Odyssey blocking buffer, 800CW goat anti-mouse IgG (H+L) antibody, and Licor Odyssey Infrared Scanner were purchased from Licor Biosciences, Lincoln, Nebr., USA. H3K9me2 mouse monoclonal antibody (Cat #1220) was purchased from Abcam (Cambridge, Mass., USA). 16% Paraformaldehyde was purchased from Electron Microscopy Sciences, Hatfield, Pa., USA). MDA-MB-231 cells were maintained in complete growth medium (RPMI supplemented with 10% v/v heat inactivated fetal bovine serum) and cultured at 37° C. under 5% CO2. UNC0638 was purchased from Sigma-Aldrich (St. Louis, Mo., USA).
General Procedure for MDA-MB-231 HEK9me2 in-cell Western Assay. Compound (100 nL) was added directly to 384-well cell plate. MDA-MB-231 cells (ATCC) were seeded in assay medium (RPMI/Glutamax supplemented with 10% v/v heat inactivated fetal bovine serum and 1% Penicillin/Streptomycin, Life Technologies) at a concentration of 3,000 cells per well to a Poly-D-Lysine coated 384-well cell culture plate with 50 μL per well. Plates were incubated at 37° C., 5% CO2 for 48 hours (BD Biosciences 356697). Plates were incubated at room temperature for 30 minutes and then incubated at 37° C., 5% CO2 for additional 48 hours. After the incubation, 50 μL per well of 8% paraformaldehyde (Electron Microscopy Sciences) in PBS was added to the plates and incubated at room temperature for 20 minutes. Plates were transferred to a Biotek 406 plate washer and washed 2 times with 100 μL per well of wash buffer (1×PBS containing 0.3% Triton X-100 (v/v)). Next, 60 μL per well of Odyssey blocking buffer (Licor Biosciences) was added to each plate and incubated for 1 hour at room temperature. Blocking buffer was removed and 20 μL of monoclonal primary antibody α-H3K9me2 (Abcam) diluted 1:800 in Odyssey buffer with 0.1% Tween 20 (v/v) were added and plates were incubated overnight (16 hours) at 4° C. Plates were washed 5 times with 100 μL per well of wash buffer. Next 20 μL per well of secondary antibody was added (1:500 800CW donkey anti-mouse IgG (H+L) antibody (Licor Biosciences), 1:1000 DRAQ5 (Cell Signaling Technology) in Odyssey buffer with 0.1% Tween 20 (v/v)) and incubated for 1 hour at room temperature. The plates were washed 5 times with […] wash buffer then 2 times with 100 μL per well of water. Plates were allowed to dry at room temperature then imaged on a Licor Odyssey Infrared Scanner (Licor Biosciences) which measured integrated intensity at 700 nm and 800 nm wavelengths. Both 700 and 800 channels were scanned.
% Inhibition Calculation. First, the ratio for each well was determined by:
Each plate included fourteen control wells of DMSO only treatment (Minimum Inhibition) as well as fourteen control wells (background wells) for maximum inhibition treated with control compound UNC0638 (Background wells).
The average of the ratio values for each well was calculated and used to determine the percent inhibition for each test well in the plate. Control compound was serially diluted three-fold in DMSO for a total of 10 test concentrations beginning at 1 μM. Percent inhibition was calculated as: […]
IC50 curves were generated using triplicate wells per concentration of compound. The IC50 is the concentration of compound at which measured methylation is inhibited by 50% as interpolated from the dose response curves. IC50 values were calculated using a non-linear regression (variable slope-four parameter fit model) with by the following formula:
where Top is fixed at 100% and Bottom is fixed to 0%, [I]=concentration of inhibitor, IC50=half maximal inhibitory concentration, and n=Hill Slope.

| Compound | IC50 |
| --- | --- |
| COc1cc2c(cc1OCCCN1CCCC1)N=C(N)C21CCOC1 (stereo not drawn) [Compound 7, 5′-methoxy-6′-(3-(pyrrolidin-1-yl)propoxy)-4,5-dihydro-2H-spiro[furan-3,3′-indol]-2′-amine] | 0.1 to 1 µM |

Same assay, conditions: MDA-MB-231 cells, H3K9me2 in-cell Western; read-out: EHMT2 ICW (IC50 μM)

| IC50 | Compound |
| --- | --- |
| 1 to 10 µM | COc1cc2[nH]c(N)nc2cc1OCCCN1CCCC1 [Compound 1, 6-methoxy-5-(3-(pyrrolidin-1-yl)propoxy)-1H-benzo[d]imidazol-2-amine] |
| 0.1 to 1 µM | COc1cc2c(cc1OCCCN1CCCC1)nc(N)n2C [Compound 2, 6-methoxy-1-methyl-5-(3-(pyrrolidin-1-yl)propoxy)-1H-benzo[d]imidazol-2-amine] |
| 0.1 to 1 µM | COc1cc2c(cc1OCCCN1CCCC1)nc(N)n2C1CCCC1 [Compound 3, 1-cyclopentyl-6-methoxy-5-(3-(pyrrolidin-1-yl)propoxy)-1H-benzo[d]imidazol-2-amine] |
| 0.1 to 1 µM | COc1cc2c(cc1OCCCN1CCCC1)N=C(N)C21CCOCC1 [Compound 5, 5-methoxy-6-(3-(pyrrolidin-1-yl)propoxy)-2′,3′,5′,6′-tetrahydrospiro[indole-3,4′-pyran]-2-amine] |
| > 10 µM | COc1cc2sc(N)nc2cc1OCCCN1CCCC1 [Compound 6, 6-methoxy-5-[3-(pyrrolidin-1-yl)propoxy]-1,3-benzothiazol-2-amine] |
| < 0.1 µM | CNc1nc2cc(OCCCN3CCCC3)c(OC)cc2n1C [Compound 8, 6-methoxy-N,1-dimethyl-5-(3-(pyrrolidin-1-yl)propoxy)-1H-benzo[d]imidazol-2-amine] |
| 0.1 to 1 µM | CCN1CC[C@@H](COc2cc3nc(N)n(C4CCCC4)c3cc2OC)C1 [Compound 9, 1-cyclopentyl-5-[[(3R)-1-ethylpyrrolidin-3-yl]methoxy]-6-methoxy-1H-1,3-benzodiazol-2-amine] |
| 0.1 to 1 µM | CCN1CC(COc2cc3nc(N)n(C4CCCC4)c3cc2OC)C1 [Compound 10, 1-cyclopentyl-5-((1-ethylazetidin-3-yl)methoxy)-6-methoxy-1H-benzo[d]imidazol-2-amine] |
| 1 to 10 µM | COc1cc2c(cc1OCCCN1CCCC1)nc(N)n2CC(F)(F)F [Compound 11, 6-methoxy-5-(3-(pyrrolidin-1-yl)propoxy)-1-(2,2,2-trifluoroethyl)-1H-benzo[d]imidazole-2-amine] |
| 1 to 10 µM | COc1cc2c(cc1OCCCN1CCCC1)nc(NCC(F)(F)F)n2C [Compound 12, 6-methoxy-1-methyl-5-(3-(pyrrolidin-1-yl)propoxy)-N-(2,2,2-trifluoroethyl)-1H-benzo[d]imidazol-2-amine] |
| 0.1 to 1 µM | CNc1nc2cc(OCCCN3CCCC3)c(OC)cc2n1C1CCOCC1 [Compound 13, 6-methoxy-N-methyl-5-(3-(pyrrolidin-1-yl)propoxy)-1-(tetrahydro-2H-pyran-4-yl)-1H-benzo[d]imidazol-2-amine] |
| 1 to 10 µM | COc1cc2c(cc1OCCCN1CCCC1)nc(N)n2CC1CCOCC1 [Compound 18] |
| 0.1 to 1 µM | COc1cc2c(cc1OCCCN1CCCC1)nc(N)n2C(C)C [Compound 19] |
| > 10 µM | COc1cc2c(cc1OCCCN1CCCC1)nc(C)n2C [Compound 21, 6-methoxy-1,2-dimethyl-5-(3-(pyrrolidin-1-yl)propoxy)-1H-benzo[d]imidazole] |
| > 10 µM | COc1cc2c(cc1OCCCN1CCCC1)nc(C1CCCC1)n2C [Compound 22, 2-cyclopentyl-6-methoxy-1-methyl-5-(3-(pyrrolidin-1-yl)propoxy)-1H-benzo[d]imidazole] |
| 1 to 10 µM | COc1cc2c(cc1OCCCN1CCCC1)nc(C)n2C1CCCC1 [Compound 23, 1-cyclopentyl-6-methoxy-2-methyl-5-(3-(pyrrolidin-1-yl)propoxy)-1H-benzo[d]imidazole] |
| < 0.1 µM | COc1cc2c(cc1C#CCN1CCCC1)N=C(N)C21CCC1 [Compound 24, 5′-methoxy-6′-(3-(pyrrolidin-1-yl)prop-1-yn-1-yl)spiro[cyclobutane-1,3′-indol]-2′-amine] |
| 0.1 to 1 µM | CNc1nc2cc(OC[C@H](O)CN3CCC3)c(OC)cc2n1C [Compound 25] |

| IC50 | Compound |
| --- | --- |
| 0.1 to 1 µM | CNc1nc2cc(OC[C@H](O)CN3CCCC3)c(OC)cc2n1C [Compound 26] |
| 0.1 to 1 µM | CCNc1nc2cc(OCCCN3CCCC3)c(OC)cc2n1C [Compound 27] |
| 1 to 10 µM | COc1cc2c(cc1OCCCN1CCCC1)nc(NC(C)C)n2C [Compound 28] |
| 1 to 10 µM | COc1cc2c(cc1OCCCN1CCCC1)nc(NC1CCOCC1)n2C [Compound 29] |
| 1 to 10 µM | COc1cc2c(cc1OCCCN1CCCC1)nc(NC1CCCC1)n2C [Compound 30] |
| 0.1 to 1 µM | CCNc1nc2cc(OC[C@H](O)CN3CCCC3)c(OC)cc2n1C [Compound 31] |
| 1 to 10 µM | COc1cc2c(cc1OC[C@H](O)CN1CCCC1)nc(NC(C)C)n2C [Compound 32] |
| 1 to 10 µM | COc1cc2c(cc1OC[C@H](O)CN1CCCC1)nc(NC1CCCC1)n2C [Compound 33] |
| 0.1 to 1 µM | COc1cc2c(cc1OC[C@H](O)CN1CCCC1)nc(NCC1CC1)n2C [Compound 34] |
| > 10 µM | COc1cc2c(cc1OC[C@H](O)CN1CCCC1)nc(NC1CCOCC1)n2C [Compound 35] |
| < 0.1 µM | CNc1nc2cc(OCCCN3CCCC3)c(OC)cc2n1C(C)C [Compound 36] |
| 0.1 to 1 µM | CNc1nc2cc(CNCCN3CCCC3)c(OC)cc2n1C [Compound 37] |
| 0.1 to 1 µM | CNc1nc2cc(OC[C@H](O)CN3CCCC3)c(OC)cc2n1C1CCCC1 [Compound 38] |
| 0.1 to 1 µM | CCNc1nc2cc(OCCCN3CCCC3)c(OC)cc2n1CC [Compound 39] |
| 1 to 10 µM | CNc1nc2cc(CNCCN3CCCC3)c(OC)cc2n1C(C)C [Compound 40] |
| 0.1 to 1 µM | CCn1c(NC)nc2cc(CNCCN3CCCC3)c(OC)cc21 [Compound 41] |
| < 0.1 µM | CCn1c(NC)nc2cc(OCCCN3CCCC3)c(OC)cc21 [Compound 42] |
